Laboratory results from patent US9902986B2, “Enterobactin conjugates and uses thereof” (Massachusetts Institute of Technology, priority 2013, dated 2018).
Entries after “also recorded” stand apart in the source; their conditions may differ.

Assays:
[1] = tested on: human colon epithelial T84 cells; experiment: Cytotoxicity study using MTT; conditions: 24 h, concentrations up to 10 μM
Method: Colon epithelial T84 cell line (purchase from ATCC) were grown in DMEM/F12 medium containing penicillin (100 I.U./mL) and streptomycin (100 μg/mL). The cells were passed and plated in 96-well flat-bottom plates ˜16 h before treatment. Each well contained 90 µL of the cell culture at a density of 10^5 cells/mL. Stock solutions of the tested conjugates (e.g., Ent-Amp) were prepared in sterile filtered 10% DMSO/water, and 10 μL of the each solution was added to each well. The plate was incubated at 37° C. and under 5% CO2 for 24 h and 20 μL of MTT (5 mg/mL in sterile PBS) was added to each well. The plate was incubated at 37° C. for another 4 h, and the supernatant was removed from each well. DMSO (100 μL) was added to the wells to afford a purple solution, and the absorbance at 550 nm was recorded by using a plate reader. Blank readings were generated by wells that only contain the growth medium but no cells. The assay was repeated in three independent trials, and the resulting mean and standard errors are reported. […] Ent-Amp, Ent, and Amp were incubated with human colon epithelial T84 cells for 24 h.
In another exemplary experiment, the human colon epithelial T84 cell line was purchased from ATCC and cultured in 1:1 DMEM/F12 medium with 10% fetal bovine serum, 1% penicillin, and streptomycin (v/v, ATCC). The cells were grown to approximately 95% confluency and treated with 3 mL of trypsin-EDTA (Corning). A 12-mL portion of fresh medium was added to the detached cells, and the T84 cell suspension was centrifuged (600 rpm×5 min, 37° C.). The supernatant was discarded, and the cell pellet was resuspended in 6 mL of the fresh culture media. The concentration of cells was quantified by using a manual hemocytometer (VWR International) and adjusted to 1×10^5 cells/mL. A 90-μL aliquot of T84 cells were then added to 96-well plates and incubated at 37° C. and 5% CO2 for 24 h. […] DMSO (100 μL) was added to each well and the absorbance at 550 nm was recorded by using a plate reader. Blank readings were recorded on wells that only contained the medium. […]

various E. coli strains = experiment: Antibacterial activity against a panel of E. coli strains; assay type: cell-based, Escherichia coli; conditions: 6 strains of E. coli (K-12, B, H9049, 25922, UTI89, CFT073)
Method: (§1) Overnight cultures of the bacterial strains were prepared by inoculating 5 mL of LB with the bacterial freezer stocks and the cultures were incubated at 37° C. in a tabletop incubator shaker set at 150 rpm. The overnight culture grew to saturation and was diluted 1:100 into 5 mL of fresh LB medium containing DP (200 μM) and incubated at 37° C. with shaking at 150 rpm until OD600 reached 0.6. The cultures were subsequently diluted to an OD600 value of 0.001 in 50% MHB medium (11.5 g/L) with or without DP (200 μM). No antibiotic marker was included in these cultures. A 90-μL aliquot of the diluted culture was combined with a 10-μL aliquot of a 10× solution of the tested compounds in a 96-well plate, which was wrapped in […] and incubated at 30° C. with shaking at 150 rpm for 19 h. Bacterial growth was determined by measuring OD600 using a BIOTEK SYNERGY HT plate reader. Each well condition was prepared in duplicate, and at least three independent replicates were conducted on different days. The resulting mean OD600 are reported and the error bars are the standard deviation.
Ampicillin and amoxicillin are β-lactam antibiotics that have periplasmic targets in Gram-negative bacteria and inhibit cell wall biosynthesis. The antibacterial activity of Ent-ampicillin and Ent-amoxicillin conjugates 44 and 45 was evaluated in vitro against a panel of Gram-negative and positive-bacteria.
Select Ent-β-lactam conjugates (Ent-Amp and Ent-Amx) and their glucosylated derivatives (MGE-Amp, MGE-Amx, DGE-Amp, and DGE-Amx) were tested against 6 strains of E. coli. Four of them are non-pathogenic strains, namely K-12, B, H9049, and 25922, and the other two are uropathogenic clinical isolates, namely UTI89 and CFT073.

E. coli K-12 = experiment: Antimicrobial activity assay, E. coli K-12; assay type: cell-based, Escherichia coli; conditions: inhibition attributed to iron deprivation
Method: as §1
In an exemplary experiment, antibacterial activities of the conjugates were tested against E. coli K-12 in 50% MHB at 30° C., t=19 h. 2,2′-dipyridyl (DP, 200 μM) was added to provide conditions of iron limitation.

E. coli CFT073 [2] = experiment: Antimicrobial activity assay, E. coli CFT073; assay type: cell-based, Escherichia coli; conditions: Fe(III)-loaded versus apo conjugates, 50% MHB, 200 μM DP, 30° C., t=19 h
Method: as §1
In another exemplary experiment, antibacterial activities of the conjugates were tested against E. coli CFT073 in 50% MHB at 30° C., t=19 h. DP (200 μM) was added to provide conditions of iron limitation.
In another exemplary experiment, antibacterial activities of Fe(III)-loaded or apo Ent-β-lactam conjugates (Ent-Amp and Ent-Amx) and their glucosylated derivatives (MGE-Amp, MGE-Amx, DGE-Amp, and DGE-Amx) against the uropathogenic strain E. coli CFT073 were tested in 50% MHB, 30° C., t=19 h. 2,2′-dipyridyl (DP, 200 μM) was added to provide conditions of iron limitation.

[3] = tested on: Salmonella enterica serovar Typhimurium (STM) IR715; experiment: Antibacterial activity assay, Salmonella Typhimurium; assay type: cell-based; conditions: 50% MHB, 100 μM 2,2′-dipyridyl, 30° C., t=19 h
Method: FIGS. 12A and 12B show exemplary antibacterial activities of Ent-Amp, Ent-Amx, MGE-Amp, MGE-Amx, DGE-Amp, and DGE-Amx against Salmonella enterica serovar Typhimurium (STM) IR715 (50% MHB with 100 μM 2,2′-dipyridyl to provide conditions of iron limitation, 30° C., t=19 h). (FIG. 12A) Antibacterial activity of Amp and the Amp-containing conjugates (Ent-Amp, MGE-Amp, and DGE-Amp). […] (FIG. 12B) Antibacterial activity of Amx and the Amx-containing conjugates (Ent-Amx, MGE-Amx, and DGE-Amx).

E. coli CFT073 [4] = experiment: Antimicrobial activity assay in the presence of lipocalin 2; assay type: cell-based, Escherichia coli; conditions: conjugate 100 nM, lcn2 1 μM, M9 minimal media, 37° C., 24 h
Method: The bacterial cultures were grown in modified M9 minimal medium (Blango, M. G.; Ott, E. M.; Erman, A.; Veranic, P.; Mulvey, M. A. Forced Resurgence and Targeting of Intracellular Uropathogenic Escherichia coli Reservoirs. PLoS One 2014, 9, e93327-e93335) (Na2HPO4 6.8 g/L, KH2PO4 3 g/L, NaCl 0.5 g/L, NH4Cl 1 g/L, 0.4% glucose, 2 mM MgSO4, 0.1 mM CaCl2, 0.2% casein amino acids, and 16.5 μg/mL of thiamine) overnight. […] The cultures were serially diluted to an OD600 value of 0.00001 in fresh modified M9 minimal medium. Lipocalin 2 (Lcn2) was diluted into PBS buffer to a concentration of 20 μM upon arrival and frozen at −20° C. until use. Bovine serum albumin (BSA, Sigma-Aldrich) was prepared in PBS buffer to achieve a concentration of 20 μM. […] The bacterial growth was determined by measuring OD600 using the plate reader. […] The resulting mean OD600 was reported, and the error bars were the standard deviation. […] In contrast, Lcn2 had no effect of the antibacterial activity of MGE-Amp, MGE-Amx, DGE-Amp, or DGE-Amx.

E. coli UTI89 = experiment: Competition assay with native siderophores, E. coli UTI89; assay type: cell-based, Escherichia coli; conditions: conjugate 100 nM, varied Ent, MGE or DGE, 50% MHB, 200 μM DP, 30° C., t=19 h
Method: Ent was synthesized following a literature procedure^55 and stored as DMSO stock solution at −20° C. MGE and DGE were prepared from Ent using MceC and IroB as described for MGE-PEG3-N3 and DGE-PEG3-N3.
(§2) In an exemplary experiment, select conjugates (Ent-Amp, MGE-Amp, and DGE-Amp) with select native siderophores (Ent, MGE, and DGE) were tested against the uropathogenic strain E. coli UTI89 in 50% MHB, t=19 h, 30° C. […] The concentration of the conjugates was fixed at 100 nM, and the concentration of the native siderophores was varied. […] These observations indicate that Ent, MGE, Ent-Amp, and MGE-Amp may enter via both FepA and IroN with different efficiency, but DGE and DGE-Amp may only enter via IroN.
as §2, with “In another” for “In an”, “100 nM” for “100 nM,”

E. coli CFT073 [5] = experiment: Competition assay with native siderophores, E. coli CFT073; assay type: cell-based, Escherichia coli; conditions: conjugate 100 nM, varied Ent, MGE or DGE, 50% MHB, 200 μM DP, 30° C., t=19 h
Method: These assays were performed following the general procedure described herein except that varying concentrations of Ent, MGE, or DGE, each of which was unmodified, were mixed with Ent-Amp, Ent-Amx, MGE-Amp, MGE-Amx, DGE-Amp, or DGE-Amx. Ent was synthesized following a literature procedure^55 and stored as DMSO stock solution at −20° C. MGE and DGE were prepared from Ent using MceC and IroB as described for MGE-PEG3-N3 and DGE-PEG3-N3.
(§3) In another exemplary experiment, select conjugates (Ent-Amp, MGE-Amp, and DGE-Amp) with select native siderophores (Ent, MGE, and DGE) were tested against the uropathogenic strain E. coli CFT073 in 50% MHB, t=19 h, 30° C. 2,2′-dipyridyl (DP, 200 μM) was added to provide conditions of iron limitation. The concentration of the conjugates was fixed at 100 nM and the concentration of the native siderophores was varied.
as §3, with “(Ent-Amx, MGE-Amx,” for “(Ent-Amp, MGE-Amp,”, “DGE-Amx)” for “DGE-Amp)”, “DP (200” for “2,2′-dipyridyl (DP, 200”

[6] = tested on: uropathogenic E. coli and non-pathogenic E. coli; experiment: Mixed culture assays (summary), uropathogenic and non-pathogenic E. coli; assay type: cell-based, Escherichia coli; conditions: uropathogenic with non-pathogenic E. coli
From the text: No antibiotic marker was included in these cultures.

O=C(N[C@H]1COC(=O)[C@@H](NC(=O)c2cccc([O-])c2[O-])COC(=O)[C@@H](NC(=O)c2cccc([O-])c2[O-])COC1=O)c1cccc([O-])c1[O-].[Fe+3] [Ent with pre-loaded Fe]
effect on viability of T84 cells (MTT) [1]: did not exhibit this effect

CC1(C)SC2C(NC(=O)C(NC(=O)CCCc3cn(CCOCCOCCOCCNC(=O)c4cc(O)c(O)c(C(=O)NC5COC(=O)C(NC(=O)c6cc(C7OC(CO)C(O)C(O)C7O)cc(O)c6O)COC(=O)C(NC(=O)c6cc(C7OC(CO)C(O)C(O)C7O)cc(O)c6O)COC5=O)c4)nn3)c3ccc(O)cc3)C(=O)N2C1C(=O)O (stereo not shown) [DGE-Amx]
antibacterial activity against uropathogenic compared to non-pathogenic E. coli (various E. coli strains): greater antibacterial activity against the uropathogenic E. coli compared to non-pathogenic E. coli | concentrations at which E. coli K-12 was inhibited (E. coli K-12): micromolar concentrations | effect of preloading Fe(III) on antibacterial activity (E. coli CFT073 [2]): no effect | antibacterial activity relative to the unmodified antibiotic [3]: enhanced antibacterial activity relative to unmodified Amx | effect of lipocalin-2 (lcn2) on antibacterial activity (E. coli CFT073 [4]): unaffected; also recorded: no effect; also recorded: not attenuated | attenuation of antibacterial activity by native siderophores (E. coli UTI89): attenuated by Ent, MGE, or DGE | attenuation of antibacterial activity by native siderophores (E. coli CFT073 [5]): attenuated by Ent, MGE, or DGE | strain-specific growth inhibition in the mixed culture assays [6]: specifically inhibited the growth of the uropathogenic E. coli

CC1(C)S[C@@H]2[C@H](NC(=O)[C@H](N)c3ccccc3)C(=O)N2[C@H]1C(=O)O [Amp, Ampicillin]
effect on viability of T84 cells (MTT) [1]: did not affect the viability of human cells significantly
